According to ChEMBL document CHEMBL1156529, “Unraveling the hidden catalytic activity of vertebrate class IIa histone deacetylases” (Proc Natl Acad Sci U S A, 2007):
The source made the active and inactive calls. No cut-off for these calls is given here.

Tests used:
Histone deacetylase 4 [1] = target: T1, Histone deacetylase 4 (Homo sapiens, UniProt P56524); assay: Inhibition of flag-tagged HDAC4 by pull-down assay
Histone deacetylase 4 [2] = target: T1, Histone deacetylase 4; assay: Inhibition of flag-tagged HDAC4 by Biomol assay
Histone deacetylase 4 [3] = target: T1, Histone deacetylase 4; assay: Inhibition of flag-tagged HDAC4 expressed in HEK293 cells upto 10,000 nM by Biomol assay; assay type: cell-based
Histone deacetylase 4 [4] = target: T1, Histone deacetylase 4; assay: Inhibition of HDAC4 catalytic domain expressed in HEK293 cells upto 10,000 nM by Biomol assay; assay type: cell-based
[5] = system: T2, Histone deacetylase 7 (Homo sapiens), Q8WUI4 [H843Y]; assay: Inhibition of HDAC7 H843Y mutant expressed in HEK293 cells; assay type: cell-based
T2 sequence (whole entry): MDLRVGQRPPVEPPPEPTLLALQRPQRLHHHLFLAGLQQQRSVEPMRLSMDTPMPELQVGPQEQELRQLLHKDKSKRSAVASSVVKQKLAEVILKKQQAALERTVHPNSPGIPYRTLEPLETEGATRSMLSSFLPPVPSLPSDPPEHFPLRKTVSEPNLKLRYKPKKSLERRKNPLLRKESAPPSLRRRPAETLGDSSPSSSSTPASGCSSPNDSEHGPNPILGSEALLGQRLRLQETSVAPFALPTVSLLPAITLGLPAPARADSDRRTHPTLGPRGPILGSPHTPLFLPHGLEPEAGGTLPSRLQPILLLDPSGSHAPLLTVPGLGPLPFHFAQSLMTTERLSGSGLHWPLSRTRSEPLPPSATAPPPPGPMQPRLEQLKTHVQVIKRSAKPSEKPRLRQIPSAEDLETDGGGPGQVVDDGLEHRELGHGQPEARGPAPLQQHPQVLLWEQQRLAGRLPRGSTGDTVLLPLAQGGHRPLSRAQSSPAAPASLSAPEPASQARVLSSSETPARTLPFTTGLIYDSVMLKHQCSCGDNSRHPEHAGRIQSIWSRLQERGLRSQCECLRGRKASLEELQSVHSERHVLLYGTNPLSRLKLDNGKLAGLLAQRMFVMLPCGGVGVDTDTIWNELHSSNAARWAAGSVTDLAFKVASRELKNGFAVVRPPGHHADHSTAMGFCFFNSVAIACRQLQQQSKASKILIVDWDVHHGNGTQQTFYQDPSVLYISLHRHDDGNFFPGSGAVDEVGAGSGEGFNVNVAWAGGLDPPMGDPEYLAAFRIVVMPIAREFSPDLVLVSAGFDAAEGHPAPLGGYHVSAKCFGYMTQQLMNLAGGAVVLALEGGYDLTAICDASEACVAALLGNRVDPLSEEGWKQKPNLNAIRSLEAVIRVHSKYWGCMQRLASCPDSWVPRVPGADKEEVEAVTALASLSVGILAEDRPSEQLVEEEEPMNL

[6] = system: Histone deacetylase 5 (Homo sapiens), Q9UQL6 [H1006Y]; assay: Inhibition of HDAC5 H1006Y mutant expressed in HEK293 cells; assay type: cell-based
Sequence of Histone deacetylase 5 (Homo sapiens), Q9UQL6 [H1006Y] (Q9UQL6 whole entry H1006Y): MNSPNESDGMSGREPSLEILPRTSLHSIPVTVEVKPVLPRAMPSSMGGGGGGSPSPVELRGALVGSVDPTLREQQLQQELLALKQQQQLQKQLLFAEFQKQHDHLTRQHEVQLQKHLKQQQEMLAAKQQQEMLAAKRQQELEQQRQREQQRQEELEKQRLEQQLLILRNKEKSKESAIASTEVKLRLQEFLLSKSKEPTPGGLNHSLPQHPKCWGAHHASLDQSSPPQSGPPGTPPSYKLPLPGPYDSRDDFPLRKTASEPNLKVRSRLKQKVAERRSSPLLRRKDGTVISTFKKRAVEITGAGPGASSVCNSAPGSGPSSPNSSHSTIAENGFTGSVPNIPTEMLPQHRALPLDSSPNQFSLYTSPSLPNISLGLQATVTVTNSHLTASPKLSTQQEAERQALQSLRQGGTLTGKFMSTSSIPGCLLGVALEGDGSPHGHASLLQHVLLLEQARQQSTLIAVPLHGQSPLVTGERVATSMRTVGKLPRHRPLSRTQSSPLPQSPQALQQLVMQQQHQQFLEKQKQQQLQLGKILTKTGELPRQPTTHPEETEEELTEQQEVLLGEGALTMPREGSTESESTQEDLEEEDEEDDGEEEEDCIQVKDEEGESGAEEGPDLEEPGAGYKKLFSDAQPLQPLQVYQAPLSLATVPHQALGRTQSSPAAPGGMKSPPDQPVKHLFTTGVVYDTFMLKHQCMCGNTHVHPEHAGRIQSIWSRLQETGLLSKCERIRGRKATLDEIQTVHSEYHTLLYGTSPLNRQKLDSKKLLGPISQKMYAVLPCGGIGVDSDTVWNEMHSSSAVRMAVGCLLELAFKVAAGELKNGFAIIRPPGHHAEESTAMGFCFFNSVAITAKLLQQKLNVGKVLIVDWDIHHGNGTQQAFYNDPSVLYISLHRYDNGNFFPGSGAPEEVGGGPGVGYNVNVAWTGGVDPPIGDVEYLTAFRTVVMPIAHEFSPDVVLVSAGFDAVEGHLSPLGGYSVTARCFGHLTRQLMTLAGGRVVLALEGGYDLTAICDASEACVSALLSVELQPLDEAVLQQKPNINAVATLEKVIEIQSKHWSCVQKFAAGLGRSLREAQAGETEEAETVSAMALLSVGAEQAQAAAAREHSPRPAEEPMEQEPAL

T1 sequence (P56524 whole entry): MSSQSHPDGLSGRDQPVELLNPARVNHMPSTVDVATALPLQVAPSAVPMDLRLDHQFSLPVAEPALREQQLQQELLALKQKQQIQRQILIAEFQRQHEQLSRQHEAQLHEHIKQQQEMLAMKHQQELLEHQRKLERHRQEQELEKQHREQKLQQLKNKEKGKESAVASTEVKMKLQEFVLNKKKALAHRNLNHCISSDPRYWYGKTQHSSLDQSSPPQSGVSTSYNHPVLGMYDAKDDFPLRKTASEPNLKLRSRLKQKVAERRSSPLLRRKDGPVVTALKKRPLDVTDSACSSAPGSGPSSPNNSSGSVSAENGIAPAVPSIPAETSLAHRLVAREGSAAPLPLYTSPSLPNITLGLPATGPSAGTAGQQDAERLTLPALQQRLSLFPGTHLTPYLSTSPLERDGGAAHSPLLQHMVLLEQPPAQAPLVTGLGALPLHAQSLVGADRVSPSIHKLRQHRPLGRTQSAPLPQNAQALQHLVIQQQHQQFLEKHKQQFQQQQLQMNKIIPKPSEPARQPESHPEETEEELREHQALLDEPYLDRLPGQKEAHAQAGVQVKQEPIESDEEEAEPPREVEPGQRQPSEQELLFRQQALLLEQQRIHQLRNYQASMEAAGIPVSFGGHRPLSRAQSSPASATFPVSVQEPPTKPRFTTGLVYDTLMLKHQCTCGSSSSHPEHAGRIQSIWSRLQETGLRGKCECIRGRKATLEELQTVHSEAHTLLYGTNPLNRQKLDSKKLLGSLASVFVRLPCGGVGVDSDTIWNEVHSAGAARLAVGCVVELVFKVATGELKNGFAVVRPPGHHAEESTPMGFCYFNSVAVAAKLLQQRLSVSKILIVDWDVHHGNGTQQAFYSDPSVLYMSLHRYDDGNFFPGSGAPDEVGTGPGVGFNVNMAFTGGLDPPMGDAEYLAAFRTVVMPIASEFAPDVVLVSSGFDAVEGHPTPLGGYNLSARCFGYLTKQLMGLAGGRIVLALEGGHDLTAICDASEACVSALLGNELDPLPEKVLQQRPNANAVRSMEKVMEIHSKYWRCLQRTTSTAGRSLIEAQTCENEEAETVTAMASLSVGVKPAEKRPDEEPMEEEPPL

SMILES	IC50 (Histone deacetylase 4 [1])	IC50 (Histone deacetylase 4 [2])	Activity (Histone deacetylase 4 [3])	Activity (Histone deacetylase 4 [4])	Activity [5]	Activity [6]
CCC(=O)CCCCC[C@H](NC(=O)[C@H]1CCCCN1C(=O)[C@@H](NC(=O)[C@@H](N)Cc1cn(OC)c2ccccc12)[C@@H](C)CC)C(=O)O	152 nM	88 nM	–	–	–	–
CCC(=O)CCCCC[C@H](NC(=O)[C@H]1CCCCN1C(=O)[C@@H](NC(=O)[C@@H](N)Cc1cn(OC)c2ccccc12)[C@H](C)CC)C(=O)O	–	–	inactive	inactive	–	–
O=C(/C=C/c1ccc(CN(CCO)CCc2c[nH]c3ccccc23)cc1)NO	–	–	–	–	Active	Active
CCC(=O)CCCCC[C@@H]1NC(=O)[C@H]2CCCCN2C(=O)[C@H]([C@@H](C)CC)NC(=O)[C@H](Cc2cn(OC)c3ccccc23)NC1=O	–	–	inactive	inactive	inactive	inactive
